# Source: patent US10800791B2, “Triazole ACC inhibitors and uses thereof” (Gilead Apollo, LLC, priority 2015, dated 2020)
# Read-outs that look alike come from different tables or passages of the source.
# What was measured:
# C. albicans = assay: Antifungal Activity Assay (broth microtiter MIC), C. albicans; assay type: cell-based, Candida albicans; conditions: Candida albicans, ATCC90028, 48 h
# How it was run: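 Colonies from 24 h Sabouraud dextrose agar plates (35° C) are suspended in RPMI 1640+MOPS and diluted to give 2.5×10^3 CFU/mL in the wells. Plates are set up per CLSI M27-A3. Visual MIC is recorded at 48 h.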
# Diplodia maydis (Dm) = assay: Growth inhibition assay of fungal pathogens, Dm; assay type: cell-based; conditions: Stenocarpella maydis, 48 h
# How it was run: (§1)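 Spore suspension in 17% V8 liquid media; cpd final 50/10/2 or 2/0.4/0.08 ppm, 2% DMSO. OD600 + visual, 24 & 48 h; % inhibition at 48 h vs 2% DMSO ctrl.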
# [1] = tested on: Collectotrichum graminicola (Cg); assay: Growth inhibition assay of fungal pathogens, Cg; assay type: cell-based; conditions: 48 h
# How it was run: as §1
# [2] = read-out: MIC, C. albicans ATCC 90028, Table 3a, 3 replicates, MIC recorded at 48 h
# [3] = read-out: MIC, C. albicans ATCC 90028, Table 3b (additional results), 3 replicates, MIC recorded at 48 h
# [4] = read-out: Concentration at 90% Inhibition Dm, Diplodia maydis, growth inhibition at 48 hours vs 2% DMSO control
# [5] = read-out: Concentration at 90% Inhibition Dm, Diplodia maydis, growth inhibition vs 2% DMSO control at 48 hours
# [6] = read-out: Concentration at 90% Inhibition Cg, Collectotrichum graminicola, growth inhibition at 48 hours vs 2% DMSO control
# [7] = read-out: Concentration at 90% Inhibition Cg, Collectotrichum graminicola, growth inhibition vs 2% DMSO control at 48 hours
# [8] = Table 3a, ATCC 90028, 3 replicates, MIC recorded at 48 h, read-out: MIC, C. albicans ATCC 90028
# [9] = Table 3b (additional results), ATCC 90028, 3 replicates, MIC recorded at 48 h, read-out: MIC, C. albicans ATCC 90028
# [10] = Diplodia maydis, growth inhibition at 48 hours vs 2% DMSO control, read-out: Concentration at 90% Inhibition Dm
# [11] = Diplodia maydis, growth inhibition vs 2% DMSO control at 48 hours, read-out: Concentration at 90% Inhibition Dm
# [12] = Collectotrichum graminicola, growth inhibition at 48 hours vs 2% DMSO control, read-out: Concentration at 90% Inhibition Cg
# [13] = Collectotrichum graminicola, growth inhibition vs 2% DMSO control at 48 hours, read-out: Concentration at 90% Inhibition Cg
Structure (SMILES),MIC (C. albicans; [2]) [µg/mL],MIC (C. albicans; [3]) [µg/mL],IC90 (Diplodia maydis (Dm); [4]) [µg/mL],IC90 (Diplodia maydis (Dm); [5]) [µg/mL],"IC90 [1, 6] [µg/mL]","IC90 [1, 7] [µg/mL]",MIC (C. albicans; [8]) [µg/mL],MIC (C. albicans; [9]) [µg/mL],IC90 (Diplodia maydis (Dm); [10]) [µg/mL],IC90 (Diplodia maydis (Dm); [11]) [µg/mL],"IC90 [1, 12] [µg/mL]","IC90 [1, 13] [µg/mL]"
"COc1ccc(F)cc1[C@H](Cn1c(=O)n(C(C)(C)C(=O)N2CCCCC2)c(=O)c2c(C)c(-n3nccn3)sc21)OC1CCC(=O)CC1 [Compound I-34, (R)-1-(2-(5-fluoro-2-methoxyphenyl)-2-((4-oxocyclohexyl)oxy)ethyl)-5-methyl-3-(2-methyl-1-oxo-1-(piperidin-1-yl)propan-2-yl)-6-(2H-1,2,3-triazol-2-yl)thieno[2,3-d]pyrimidine-2,4(1H,3H)-dione]",0.25 to 1,0.25 to 1,2,2,0.4,0.4,–,–,–,–,–,–
"COc1ccc(F)cc1[C@H](Cn1c(=O)n(CC(=O)NC(C)C)c(=O)c2c(C)c(-n3nccn3)sc21)OC(C)C [Compound I-35, (R)-2-(1-(2-(5-fluoro-2-methoxyphenyl)-2-isopropoxy-ethyl)-5-methyl-2,4-dioxo-6-(2H-1,2,3-triazol-2-yl)-1,4-dihydrothieno[2,3-d]pyrimidin-3(2H)-yl)-N-isopropylacetamide]",2.1 to 4,2.01 to 4,0.4,0.4,> 50,> 50,–,–,–,–,–,–
"CCO[C@@H](Cn1c(=O)n(C(C)(C)C(=O)N2CCCC2)c(=O)c2c(C)c(-n3nccn3)sc21)c1cc(F)ccc1OC [Compound I-42, (R)-1-(2-ethoxy-2-(5-fluoro-2-methoxyphenyl)ethyl)-5-methyl-3-(2-methyl-1-oxo-1-(pyrrolidin-1-yl)propan-2-yl)-6-(2H-1,2,3-triazol-2-yl)thieno[2,3-d]pyrimidine-2,4(1H,3H)-dione]",–,–,–,–,–,–,1.1 to 2,2.01 to 4,0.4,0.4,0.08,0.08
"COc1ccc(F)cc1[C@H](Cn1c(=O)n(C(C)(C)C(=O)NC(C)C)c(=O)c2c(C)c(-n3nccn3)sc21)OCCO [Compound I-43, (R)-2-(1-(2-(5-fluoro-2-methoxyphenyl)-2-(2-hydroxyethoxy)ethyl)-5-methyl-2,4-dioxo-6-(2H-1,2,3-triazol-2-yl)-1,4-dihydrothieno[2,3-d]pyrimidin-3(2H)-yl)-N-isopropyl-2-methylpropanamide]",0.25 to 1,0.25 to 1,0.4,0.4,0.4,0.4,–,–,–,–,–,–
"COc1ccc(F)cc1[C@H](Cn1c(=O)n(C(C)(C)C(=O)N2CCCC2)c(=O)c2c(C)c(-n3nccn3)sc21)OCCO [Compound I-44, (R)-1-(2-(5-fluoro-2-methoxyphenyl)-2-(2-hydroxyethoxy)ethyl)-5-methyl-3-(2-methyl-1-oxo-1-(pyrrolidin-1-yl)propan-2-yl)-6-(2H-1,2,3-triazol-2-yl)thieno[2,3-d]pyrimidine-2,4(1H,3H)-dione]",–,–,–,–,–,–,2.1 to 4,1.01 to 2,2,10,2,2
"COc1ccc(F)cc1[C@H](Cn1c(=O)n(C(C)(C)C(=O)NC(C)C)c(=O)c2c(C)c(-n3nccn3)sc21)OC[C@@H](C)O [Compound I-45, 2-(1-((R)-2-(5-fluoro-2-methoxyphenyl)-2-((R)-2-hydroxypropoxy)ethyl)-5-methyl-2,4-dioxo-6-(2H-1,2,3-triazol-2-yl)-1,4-dihydro-thieno[2,3-d]pyrimidin-3(2H)-yl)-N-isopropyl-2-methylpropanamide]",0.25 to 1,0.25 to 1,0.4,0.4,0.4,0.4,–,–,–,–,–,–
"COc1ccc(F)cc1[C@H](Cn1c(=O)n(C(C)(C)C(=O)N2CCCC2)c(=O)c2c(C)c(-n3nccn3)sc21)OC[C@@H](C)O [Compound I-46, 1-((R)-2-(5-fluoro-2-methoxyphenyl)-2-((R)-2-hydroxypropoxy)ethyl)-5-methyl-3-(2-methyl-1-oxo-1-(pyrrolidin-1-yl)propan-2-yl)-6-(2H-1,2,3-triazol-2-yl)thieno[2,3-d]pyrimidine-2,4(1H,3H)-dione]",–,–,–,–,–,–,0.25 to 1,0.25 to 1,2,2,0.4,0.4
